The record followed here is US7108865B2, “Controlled-release dosage forms of azithromycin” (Pfizer Inc, priority 1994, dated 2006).

Where two headings read alike, the source gives them in different places.

The nature of this data set: Serum azithromycin pharmacokinetics after 2 g oral capsule dose, single vs divided (Example 1). The format is in vivo. To be noted: male, human, mean; for AUC(0-t): read-out: AUC0–144. As for the experimental part: In a double-blind, randomized, placebo-controlled parallel group study, healthy male subjects were divided into three groups. Group A received a single 2 g azithromycin dose as eight 250 mg azithromycin capsules (“bolus dosing” group). Group B received the same total dose, administered as eight 250 mg capsules at the rate of one 250 mg capsule each 30 minutes for 3.5 hr (“divided dosing” group). Group C received matching placebo capsules. All subjects received eight capsules of drug or placebo at time 0, and a capsule of drug or placebo every half-hour for 3.5 hr. All subjects were dosed after an overnight fast. […] Tmax is the time at which Cmax is achieved.

[1] abbreviates: 250 mg capsule per half-hr for 3.5 hr (2 g total), oral, fasted.
Setting [2] is: 2 g single oral dose as eight 250 mg capsules, fasted.

As a reminder, the Cmax is the highest concentration seen after dosing. The Tmax is the time from dosing to the highest level. In the case of `CC[C@H]1OC(=O)[C@H](C)[C@@H](O[C@H]2C[C@@](C)(OC)[C@@H](O)[C@H](C)O2)[C@H](C)[C@@H](O[C@@H]2O[C@H](C)C[C@H](N(C)C)[C@H]2O)[C@](C)(O)C[C@@H](C)CN(C)[C@H](C)[C@@H](O)[C@]1(C)O` [azithromycin, 9a-aza-9a-methyl-9-deoxo-9a-homoerythromycin A], under setting [1], the Cmax worked out at 1130 ng/mL, the time of peak concentration (Tmax) was 4.4 h and the AUC(0-t) was 18900 ng·h/mL. The molecule further registered a Cmax (2 g single oral dose as eight 250 mg capsules, fasted healthy male subjects) of 1690 ng/mL. In addition, under setting [2], the Tmax was 1.3 h and the AUC(0-t) came to 18800 ng·h/mL.
